Reference: paper PMC4578755, “Development of novel cellular histone-binding and chromatin-displacement assays for bromodomain drug discovery” (Epigenetics & Chromatin, 2015)

Tests used:
[1] = target: T1, TRIM24-PB chromatin binding in HeLa TRIM24-PB cells (Homo sapiens, UniProt O15164); assay: In situ cell extraction with IF in HeLa TRIM24-PB cells; format: cell-based
T1 construct: The FLAG-TRIM24-PB construct (residues 810–1050) was generated by PCR amplification; expressed in transfected cells
T1 sequence (O15164 810-1050): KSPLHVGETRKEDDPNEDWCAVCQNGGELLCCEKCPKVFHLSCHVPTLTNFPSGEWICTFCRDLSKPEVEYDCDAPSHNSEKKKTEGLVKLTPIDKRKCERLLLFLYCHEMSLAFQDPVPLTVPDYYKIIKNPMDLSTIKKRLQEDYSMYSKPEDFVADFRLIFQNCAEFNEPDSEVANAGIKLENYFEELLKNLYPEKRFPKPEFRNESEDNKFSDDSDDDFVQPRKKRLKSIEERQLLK
Procedure: OV90 or HeLa cells (20,000 cells/100 µL) were seeded into 96-well plates (Corning Costar #3603) using RPMI or DMEM medium, respectively, supplemented with 10 % FBS and grown overnight. Test agents were serially diluted in DMSO (with or without SAHA) to generate 10X master compound plates. From here, 11 µL was transferred into each well containing 100 µL of growth media followed by shaking on a rotation table (15 min, 300 rpm at RT) and incubation at 37 °C for 2 h. Plates were washed once with PBS (150 µL/well) and then with cold, freshly prepared Cytoskeleton (CSK) Buffer (10 mM PIPES, 300 mM Sucrose, 100 mM NaCl, 3 mM MgCl2; pH = 6.8). Immediately thereafter, soluble, non-chromatin-bound proteins were extracted by addition of cold CSK Buffer supplemented with 0.5 % Triton X-100 (150 µL per well) for 10 min at 4 °C followed by 4 % paraformaldehyde fixation (10 min at RT) (Additional file 1: Table S3).
Standard IF procedures were used. Briefly, cells were permeabilized (0.5 % Triton X-100 in PBS) for 15 min and incubated with blocking solution (DAKO #X0909) for 30 min. The following primary antibodies were used: goat anti-V5 (Bethyl #A190-119A) 1:200; mouse anti-FLAG (Sigma #F1804) 1:200; rabbit anti-BRD4 (Abcam #ab128874) 1:200; rabbit anti-TRIM24 (Proteintech #14208-1-AP) 1:400; rabbit anti-K3K23Ac (Cell Signaling #8848) 1:200, and mouse anti-histone H3 (Active Motif #39763) 1:4000. Alexa Fluor-conjugated secondary antibodies were from Invitrogen and Hoechst 33342 (Invitrogen, #H3570) was used for nuclei counterstaining (10 µg/ml). For each Alexa fluorochrome, images (4–10 fields per well; 20X magnifications) were acquired using the Operetta High-Content Screening System (PerkinElmer). Image analysis was performed in Harmony software (PerkinElmer) by selecting nuclei and cytoplasm in Hoechst channel. Gating for single cells of flat morphology was done based on nuclei area, roundness and intensity of Hoechst in the nucleus and in the cytoplasm. In every gated cell, the mean signal intensity value for each fluorochrome was calculated separately in nucleus and cytoplasm. The specific nuclear signal was estimated subtracting mean cytoplasmic value from nuclear; and average value was calculated using at least 1000 cells in each well.
Supplemental Table S3 (Zhan et al.)
Table S3. In Situ Cell Extraction Procedure (IF)
Step Parameter Solution Volume Time Temp (°C)
Seed cells DMEM supplemented with 10 % FBS 37°C,
2 SAHA treatment SAHA (50 µM) in DMEM with 10% FBS 12 µL 2h 37°C,
3 Prepare Master 100X final concentration in assay 30 µL […]
Image analysis: The analysis was performed in Harmony (PerkinElmer) software by selecting nuclei and cytoplasm in Hoechst 33342 channel . […] For each channel “mean nuclear signal“ was calculated as “mean […]

[2] = target: T2, TRIM24-PB/histone H3 co-localization in HeLa TRIM24-PB cells (Homo sapiens, UniProt O15164); assay: Proximity ligation assay (PLA) TRIM24/histone H3; format: cell-based; conditions: SAHA treatment; Alexa-conjugated secondary antibodies
T2 construct: The FLAG-TRIM24-PB construct (residues 810–1050) was generated by PCR amplification; expressed in transfected cells
T2 sequence (O15164 810-1050): T1 sequence (O15164 810-1050)
Procedure: Hela cells expressing FLAG-TRIM24-PHD-Bromo-V5 (TRIM24-PB) (20 K/100 µL) were seeded into 96-well plates (Corning Costar #CLS3603) in DMEM media supplemented with 10 % FBS and grown overnight. After treatment with SAHA (5 µM, 2 h), plates were washed with PBS (150ul per well) and fixed with 4 % paraformaldehyde (10 min at RT). PLA was performed using Duolink® In situ Red Starter Kit Mouse/Goat (Sigma-Aldrich, DUO92103), according to manufacturer’s recommendation. Primary antibody pair was: Goat anti-V5 (1:200 dilution; Bethyl #A190-119A) and Mouse anti-histone H3 (1:4000 dilution; Active Motif, #39763). Following PLA, secondary antibody Alexa Fluor®594 Donkey Anti-Goat (Invitrogen #A-11056) and Alexa Fluor®488 Donkey Anti-Mouse (Invitrogen #A-21202) were used to measure the total levels of V5 and histone H3. Using the High-Content Screening System Operetta with 40× magnification, cell images from 25 fields in each well were taken in 4 channels (Alexa488, Alexa594, Alexa647 and Hoechst). […] For each gated cell, we calculated the mean signal intensity for histone H3 (Alexa488 in the nucleus minus Alexa488 in the cytoplasm); TRIM24 (Alexa594 in the nucleus minus the […] intensity in the cytoplasm); and the mean number for the PLA signal (number of spots in nucleus). […]

Compound: Cc1nc(S(=O)(=O)Nc2cc3c(cc2Oc2cccc(OCC(C)C)c2)n(C)c(=O)n3C)cn1C [IACS-6558, N-{1,3-dimethyl-6-[3-(2-methylpropoxy)phenoxy]-2-oxo-2,3-dihydro-1H-1,3-benzodiazol-5-yl}-1,2-dimethyl-1H-imidazole-4-sulfonamide]
- Time to displacement of TRIM24-PB from chromatin ([1]; HeLa TRIM24-PB): ≤ 5 min
- IF signal of chromatin-bound TRIM24-PB ([1]; HeLa TRIM24-PB with SAHA, anti-FLAG and anti-TRIM24 antibodies, 2 h): reducing the IF signal to baseline

Compound: O=C(CCCCCCC(=O)Nc1ccccc1)NO [SAHA, Suberoylanilide Hydroxamic Acid]
- Mean nuclei levels of TRIM24 [2]: did not change
- SAHA-induced TRIM24-PB chromatin binding (assay window) ([1]; anti-FLAG antibody): fivefold
- SAHA-induced TRIM24-PB chromatin binding (assay window) ([1]; anti-TRIM24 antibody): twofold
